Data reported in publication PMC12198407, “Preclinical and first-in-human of purinostat mesylate, a novel selective HDAC I/IIb inhibitor, in relapsed/refractory multiple myeloma and lymphoma” (Signal Transduction and Targeted Therapy, 2025).
Entries after “also recorded” stand apart in the source; their conditions may differ.

Assays:
[1] = test system: human Burkitt lymphoma Raji; assay: Raji subcutaneous tumor model; assay type: in vivo, NOD/SCID mice
Description: In contrast, both batches of the positive control CODOX group experienced instances of individual mortality during administration.

[2] = Intravenous vascular irritation test; assay type: in vivo, rabbits; conditions: 0.204 mg/mL, 10 mL/kg, 5 days
Experimental: This experiment included a blank formulation group of injectable Purinostat Mesylate and an injectable Purinostat Mesylate group, with 8 Japanese White Rabbits in each group, evenly divided by sex. The injectable Purinostat Mesylate group received an intravenous infusion of 0.204 mg/mL (the maximum intended clinical concentration) at a volume of 10 mL/kg via the right ear marginal vein. The blank formulation group received an intravenous infusion of hydroxypropyl beta-cyclodextrin at the same dose as the injectable Purinostat Mesylate group. Each rabbit in both groups also received an equal volume of 0.9% sodium chloride injection via the left ear marginal vein as a self-control. The administration was performed once daily for a total of 5 consecutive days, with the first day of administration defined as Day 1 of the experiment. During the study, the general condition of the rabbits and the injection site were monitored daily. Approximately 72 hours and 16 days after administration, 4 rabbits from each group were euthanized for gross anatomical observation of the injection site, and blood vessels and surrounding tissues from the injection site were collected for histopathological examination.

[3] = Phase I trial NCT05526313, safety and tolerability (adverse events, CTCAE 5.0)

## CN(Cc1nc2c(N3CCOCC3)nc(-c3ccc(N)cc3)nc2n1C)c1ncc(C(=O)NO)cn1.CS(=O)(=O)O [PM, 2-(((2-(4-Aminophenyl)-9-methyl-6-(4-morpholinyl)-9H-purine-8-yl)methyl)methylamino)-N-hydroxy-5-pyrimidine-carboxamide Mesylate]
[1]; 1.25 mg/kg
  T/C: 48.13±5.13%
[1]; 1.25 mg/kg, mean of two batches
  tumor inhibition rate: 52.03 ± 3.36%
[1]; 2.5 mg/kg
  T/C: 31.86±8.56%
  tumor inhibition rate: 66.15 ± 12.49%
[1]; 5 mg/kg
  T/C: 18.11±7.50%
  tumor inhibition rate: 81.65 ± 8.67%
[1]; 10 mg/kg
  T/C: 7.75±5.02%
  tumor inhibition rate: 89.98 ± 8.01%
[1]; satellite group, 10 mg/kg
  median survival time: 39 days
[2]
  irritation at the injection site: did not cause irritation at the injection site
[3]; 1.2–15 mg/m^2
  dose-limiting toxicity (DLT): no dose-limiting toxicities observed; also recorded: no dose-limiting toxicity (DLT) events occurred; also recorded: no arrhythmias or DLT were observed
[3]; 29 treated patients
  grade 5 events: no grade 5 events reported
  patients with grade 3–4 TEAEs: 25 (86.2%) n (%)
[3]; […]
  COVID-19: 1(3.4) n (%)
  Investigations (SOC): 29(100.0) n (%)
  QRS axis abnormalities: 1(3.4) n (%)
  ST segment abnormalities on ECG: 5(17.2) n (%)
  ST-T segment changes on ECG: 9(31.0) n (%)
  T wave abnormalities on ECG: 9(31.0) n (%)
  abdominal discomfort: 1(3.4) n (%)
  abdominal distension: 4(13.8) n (%)
  abdominal pain: 2(6.9) n (%)
  abnormal liver function: 1(3.4) n (%)
  alopecia: 1(3.4) n (%)
  anemia: 20(69.0) n (%)
  angular cheilitis: 1(3.4) n (%)
  appendicitis: 1(3.4) n (%)
  arrhythmia: 1(3.4) n (%)
  arthralgia: 3(10.3) n (%)
  atrial tachycardia: 1(3.4) n (%)
  backache: 1(3.4) n (%)
  bacteremia: 1(3.4) n (%)
  belching: 1(3.4) n (%)
  bleeding gums: 1(3.4) n (%)
  blood and lymphatic system diseases (SOC): 20(69.0) n (%)
  chill: 1(3.4) n (%)
  conjunctival bleeding: 1(3.4) n (%)
  constipation: 1(3.4) n (%)
  cough: 1(3.4) n (%)
  decreased blood fibrinogen: 1(3.4) n (%)
  decreased lymphocyte count: 16(55.2) n (%)
  decreased monocyte count: 2(6.9) n (%)
  decreased neutrophil count: 25(86.2) n (%)
  decreased platelet count: 24(82.8) n (%)
  decreased white blood cell count: 24(82.8) n (%)
  diarrhea: 4(13.8) n (%)
  dizziness: 13(44.8) n (%)
  duodenogastric reflux: 1(3.4) n (%)
  dyspepsia: 1(3.4) n (%)
  dyspnea: 1(3.4) n (%)
  elevated blood creatine phosphokinase: 1(3.4) n (%)
  elevated blood unconjugated bilirubin: 1(3.4) n (%)
  epigastric pain: 1(3.4) n (%)
  epistaxis: 2(6.9) n (%)
  extraventricular contraction: 1(3.4) n (%)
  eye organ disease (SOC): 2(6.9) n (%)
  eyelid edema: 1(3.4) n (%)
  facial pain: 1(3.4) n (%)
  fatigue: 3(10.3) n (%)
  fever: 2(6.9) n (%)
  fungal skin infection: 1(3.4) n (%)
  gastritis: 1(3.4) n (%)
  gastroesophageal reflux disease: 2(6.9) n (%)
  gastrointestinal hemorrhage: 1(3.4) n (%)
  gastrointestinal system diseases (SOC): 21(72.4) n (%)
  head discomfort: 1(3.4) n (%)
  headache: 14(48.3) n (%)
  heart organ diseases (SOC): 13(44.8) n (%)
  heat and cold intolerance: 1(3.4) n (%)
  hematochezia: 1(3.4) n (%)
  hematuria: 4(13.8) n (%)
  hepatic failure: 2(6.9) n (%)
  hepato-biliary diseases (SOC): 3(10.3) n (%)
  herpes zoster: 4(13.8) n (%)
  herpesvirus infection: 1(3.4) n (%)
  high voltage on ECG: 3(10.3) n (%)
  hypercalcemia: 1(3.4) n (%)
  hyperglycemia: 7(24.1) n (%)
  hyperlipoidemia: 4(13.8) n (%)
  hypermagnesemia: 3(10.3) n (%)
  hypertension: 2(6.9) n (%)
  hypertriglyceridemia: 2(6.9) n (%)
  hyperuricemia: 4(13.8) n (%)
  hypoalbuminemia: 1(3.4) n (%)
  hypocalcemia: 7(24.1) n (%)
  hypochloremia: 4(13.8) n (%)
  hypokalemia: 11(37.9) n (%)
  hypomagnesemia: 4(13.8) n (%)
  hyponatremia: 10(34.5) n (%)
  hypophosphatemia: 13(44.8) n (%)
  hypotension: 2(6.9) n (%)
  increased blood creatinine: 2(6.9) n (%)
  increased lymphocyte count: 1(3.4) n (%)
  increased monocyte count: 13(44.8) n (%)
  increased serum bilirubin: 4(13.8) n (%)
  increased total bile acid: 1(3.4) n (%)
  increased troponin: 1(3.4) n (%)
  increased urobilinogen in the urine: 3(10.3) n (%)
  increased γ-glutamyl transferase: 2(6.9) n (%)
  infections and infestations diseases (SOC): 13(44.8) n (%)
  infectious pneumonia: 1(3.4) n (%)
  insomnia: 1(3.4) n (%)
  kidney and urinary system diseases (SOC): 6(20.7) n (%)
  left ventricular dysfunction: 1(3.4) n (%)
  limb pain: 2(6.9) n (%)
  loss of appetite: 2(6.9) n (%)
  mental disorder (SOC): 1(3.4) n (%)
  metabolic and nutritional diseases (SOC): 23(79.3) n (%)
  muscle weakness: 1(3.4) n (%)
  musculoskeletal discomfort: 1(3.4) n (%)
  nasal congestion: 1(3.4) n (%)
  nausea: 15(51.7) n (%)
  oral hypoesthesia: 2(6.9) n (%)
  oral mucositis: 1(3.4) n (%)
  palpitation: 4(13.8) n (%)
  parageusia: 1(3.4) n (%)
  pericardial effusion: 1(3.4) n (%)
  periodontitis: 1(3.4) n (%)
  peripheral edema: 1(3.4) n (%)
  petechia: 2(6.9) n (%)
  proteinuria: 1(3.4) n (%)
  pruritus: 3(10.3) n (%)
  pulmonary inflammation: 1(3.4) n (%)
  rash: 3(10.3) n (%)
  reduced intake: 10(34.5) n (%)
  renal failure: 1(3.4) n (%)
  respiratory tract infection: 1(3.4) n (%)
  right bundle branch block: 1(3.4) n (%)
  sinus bradycardia: 1(3.4) n (%)
  sinus tachycardia: 7(24.1) n (%)
  skin and subcutaneous tissue diseases (SOC): 10(34.5) n (%)
  skin pain: 1(3.4) n (%)
  skin xerosis: 2(6.9) n (%)
  soft tissue infection: 1(3.4) n (%)
  supraventricular extraventricular contraction: 2(6.9) n (%)
  systemic diseases and various reactions at the administration site (SOC): 19(65.5) n (%)
  tachypnea: 3(10.3) n (%)
  tongue ulcer: 1(3.4) n (%)
  upper respiratory tract bacterial infection: 1(3.4) n (%)
  upper respiratory tract infection: 3(10.3) n (%)
  urinary tract infection: 3(10.3) n (%)
  urine protein detection: 4(13.8) n (%)
  various musculoskeletal and connective tissue diseases (SOC): 7(24.1) n (%)
  various neurological diseases (SOC): 19(65.5) n (%)
  vascular and lymphatic diseases (SOC): 3(10.3) n (%)
  ventricular hypokinesia: 1(3.4) n (%)
  vesicular rash: 1(3.4) n (%)
  vomit: 15(51.7) n (%)
  weakness: 14(48.3) n (%)
[3]; […], second line of this term
  ST segment abnormalities on ECG: 1(3.4) n (%)
  hypermagnesemia: 2(6.9) n (%)
[3]; all doses, N = 29
  Grade ≥3 lymphopenia: 31.0%
  Grade ≥3 thrombocytopenia: 75.9%
